Holding throughout (assay): cAMP accumulation assay (LANCE Ultra cAMP kit), GIPR WT, mutant or modified constructs
Common to all, as to assay type: cell-based
Holding throughout (parameters): acylated tirzepatide to the full-length or modified; Flag; expressed in transfected cells; host or cells: HEK293T
For orientation: cAMP levels reflect the balance of adenylyl cyclase and phosphodiesterase activity.

Experiment [1] has as its target T1, GIPR (Homo sapiens, UniProt P48546, R196A).
T1 sequence (P48546 22-466 R196A): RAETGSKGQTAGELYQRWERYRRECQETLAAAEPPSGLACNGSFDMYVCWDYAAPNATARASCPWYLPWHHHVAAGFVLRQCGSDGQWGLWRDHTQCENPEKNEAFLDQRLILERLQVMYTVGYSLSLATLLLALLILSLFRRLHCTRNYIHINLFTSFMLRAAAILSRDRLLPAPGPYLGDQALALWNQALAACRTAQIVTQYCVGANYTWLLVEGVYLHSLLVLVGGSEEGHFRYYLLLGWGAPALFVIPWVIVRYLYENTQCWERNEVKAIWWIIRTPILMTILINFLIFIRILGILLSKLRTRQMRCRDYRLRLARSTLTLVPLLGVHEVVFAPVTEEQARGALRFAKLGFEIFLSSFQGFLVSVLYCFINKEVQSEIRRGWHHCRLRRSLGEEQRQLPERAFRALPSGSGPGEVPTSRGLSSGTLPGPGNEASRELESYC
The note with it: GIPR R196A, HEK293T. An outline of the steps:
(§1)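 HEK293T cells transiently transfected with human GIPR WT or mutant constructs (pcDNA3.1), used after 24 h. The cells were stimulated with peptide agonists for 40 min at RT in HBSS with 5 mM HEPES, 0.1% BSA or casein, and 0.5 mM IBMX. cAMP was read by LANCE Ultra TR-FRET (Eu-cAMP tracer/ULight anti-cAMP, 1 h RT, 620/650 nm).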

The target in experiment [2] is T2, GIPR (Homo sapiens, UniProt P48546, Q285A).
T2 sequence (P48546 22-466 Q285A): T1 sequence (P48546 22-466 R196A) with A175R, Q264A
The note with it: GIPR Q285A, HEK293T. An outline of the steps: as §1

Experiment [3] addresses T3, GIPR (Homo sapiens, UniProt P48546, Y141A).
T3 sequence (P48546 22-466 Y141A): T1 sequence (P48546 22-466 R196A) with Y120A, A175R
The note with it: GIPR Y141A, HEK293T. An outline of the steps:
as §1

Where [4] appears, read: read-out: cAMP pEC50 (converted).

Residue numbers refer to the chain shown, from its start.

As usually defined, the Emax is the maximal effect, on the per cent scale that the assay sets. With `CCCCCCCCCCCCCCCC(=O)N[C@@H](CCC(=O)NCCCC[C@H](NC(=O)[C@H](CC(=O)O)NC(=O)[C@H](CO)NC(=O)[C@@H](NC(=O)[C@H](Cc1ccccc1)NC(=O)[C@@H](NC(=O)CNC(=O)[C@H](CCC(N)=O)NC(=O)C(C)(C)NC(=O)[C@@H](N)Cc1c[nH]cn1)[C@@H](C)O)[C@@H](C)O)C(=O)N[C@@H](CO)C(=O)N[C@@H](CCCCN)C(=O)N[C@@H](Cc1ccc(O)cc1)C(=O)N[C@@H](CC(C)C)C(=O)N[C@@H](CC(=O)O)C(=O)N[C@@H](CCC(=O)O)C(=O)N[C@@H](CCCNC(=N)N)C(=O)N[C@@H](C)C(=O)N[C@@H](C)C(=O)N[C@@H](CCC(N)=O)C(=O)N[C@@H](CC(=O)O)C(=O)N[C@@H](Cc1ccccc1)C(=O)N[C@H](C(=O)N[C@@H](CCC(N)=O)C(=O)N[C@@H](Cc1c[nH]c2ccccc12)C(=O)N[C@@H](CC(C)C)C(=O)N[C@@H](CC(C)C)C(=O)N[C@@H](CC(=O)O)C(=O)NCC(=O)NCC(=O)N1CCC[C@H]1C(=O)N[C@@H](CO)C(=O)N[C@@H](CO)C(=O)NCC(=O)N[C@@H](C)C(=O)N1CCC[C@H]1C(=O)N1CCC[C@H]1C(=O)N1CCC[C@H]1C(=O)N[C@@H](CO)C(N)=O)C(C)C)C(=O)O` [Peptide 20], the EC50 at GIPR [1] (setting [4]) is 0.0468 nM; at GIPR [2] (setting [4]) it was 0.0417 nM; at GIPR [3] (setting [4]) it was 3.72 nM. Moreover, the values for the Emax on GIPR [1] (HEK-293T), on GIPR [2] (HEK-293T) and on GIPR [3] (HEK-293T) were 98.5 ± 1.43%, 97.6 ± 1.37% and 75.1 ± 1.79%, respectively.
